The record followed here is ChEMBL document CHEMBL1155516, “Biochemical and structural analysis of the binding determinants of a vascular endothelial growth factor receptor peptidic antagonist” (J Med Chem, 2010).

Experiment [1] concerns the target Vascular endothelial growth factor receptor 2 (Homo sapiens) (UniProt P35968). In words: Inhibition of VEGFR2 phosphorylation in VEGF165-stimulated HUVEC at 100 uM treated for 1 hr before VEGF165 challenge measured after 5 mins by Western blot analysis. It is filed as cell-based. On the technique in general: A western blot detects proteins with antibodies after separation by electrophoresis.

Experiment [2] shares this target. In words: Binding affinity to human recombinant VEGFR2 extracellular domain immobilized in CNBr-activated sepharose at 25 nmol after 5 mins by pull-down assay.
Experiment [3] has the same target. In words: Inhibition of VEGFR2 phosphorylation in VEGF165-stimulated HUVEC treated for 1 hr before VEGF165 challenge measured after 5 mins by Western blot analysis. It is filed as cell-based.
The target is the same in experiment [4]. In words: Inhibition of VEGFR2 phosphorylation in VEGF165-stimulated HUVEC at 10 uM treated for 1 hr before VEGF165 challenge measured after 5 mins by Western blot analysis. Format: cell-based.
Experiment [5] shares this target. In words: Inhibition of VEGFR2 phosphorylation in VEGF165-stimulated HUVEC at 3 uM treated for 1 hr before VEGF165 challenge measured after 5 mins by Western blot analysis.
The target is the same in experiment [6]. In words: Inhibition of VEGFR2 phosphorylation in VEGF165-stimulated HUVEC at 33 uM treated for 1 hr before VEGF165 challenge measured after 5 mins by Western blot analysis. Format: cell-based.
Experiment [7] concerns HUVEC. Particulars: Homo sapiens, 100 uM.
Description: Inhibition of VEGFR in HUVEC assessed as inhibition of VEGF165-induced ERK1/2 phosphorylation at 100 uM treated for 1 hr before VEGF165 challenge measured after 15 mins by Western blot analysis
The test system of experiment [8] is HUVEC. The following applies: Homo sapiens, 33 uM.
Description: Inhibition of VEGFR in HUVEC assessed as inhibition of VEGF165-induced ERK1/2 phosphorylation at 33 uM treated for 1 hr before VEGF165 challenge measured after 15 mins by Western blot analysis
Experiment [9] relates to HUVEC. The following applies: Homo sapiens, 10 uM.
Experiment [10] deals with HUVEC. Particulars: Homo sapiens, 3 uM.
Description: Inhibition of VEGFR in HUVEC assessed as inhibition of VEGF165-induced ERK1/2 phosphorylation at 3 uM treated for 1 hr before VEGF165 challenge measured after 15 mins by Western blot analysis

The source made the active and inactive calls. The rule behind the calls is not given here. Where a SMILES comes first, the peptide text is derived from it. Bridges are numbered along the chain shown (N, C = ends).

Vascular endothelial growth factor receptor 2 (Homo sapiens), sequence (P35968 whole entry): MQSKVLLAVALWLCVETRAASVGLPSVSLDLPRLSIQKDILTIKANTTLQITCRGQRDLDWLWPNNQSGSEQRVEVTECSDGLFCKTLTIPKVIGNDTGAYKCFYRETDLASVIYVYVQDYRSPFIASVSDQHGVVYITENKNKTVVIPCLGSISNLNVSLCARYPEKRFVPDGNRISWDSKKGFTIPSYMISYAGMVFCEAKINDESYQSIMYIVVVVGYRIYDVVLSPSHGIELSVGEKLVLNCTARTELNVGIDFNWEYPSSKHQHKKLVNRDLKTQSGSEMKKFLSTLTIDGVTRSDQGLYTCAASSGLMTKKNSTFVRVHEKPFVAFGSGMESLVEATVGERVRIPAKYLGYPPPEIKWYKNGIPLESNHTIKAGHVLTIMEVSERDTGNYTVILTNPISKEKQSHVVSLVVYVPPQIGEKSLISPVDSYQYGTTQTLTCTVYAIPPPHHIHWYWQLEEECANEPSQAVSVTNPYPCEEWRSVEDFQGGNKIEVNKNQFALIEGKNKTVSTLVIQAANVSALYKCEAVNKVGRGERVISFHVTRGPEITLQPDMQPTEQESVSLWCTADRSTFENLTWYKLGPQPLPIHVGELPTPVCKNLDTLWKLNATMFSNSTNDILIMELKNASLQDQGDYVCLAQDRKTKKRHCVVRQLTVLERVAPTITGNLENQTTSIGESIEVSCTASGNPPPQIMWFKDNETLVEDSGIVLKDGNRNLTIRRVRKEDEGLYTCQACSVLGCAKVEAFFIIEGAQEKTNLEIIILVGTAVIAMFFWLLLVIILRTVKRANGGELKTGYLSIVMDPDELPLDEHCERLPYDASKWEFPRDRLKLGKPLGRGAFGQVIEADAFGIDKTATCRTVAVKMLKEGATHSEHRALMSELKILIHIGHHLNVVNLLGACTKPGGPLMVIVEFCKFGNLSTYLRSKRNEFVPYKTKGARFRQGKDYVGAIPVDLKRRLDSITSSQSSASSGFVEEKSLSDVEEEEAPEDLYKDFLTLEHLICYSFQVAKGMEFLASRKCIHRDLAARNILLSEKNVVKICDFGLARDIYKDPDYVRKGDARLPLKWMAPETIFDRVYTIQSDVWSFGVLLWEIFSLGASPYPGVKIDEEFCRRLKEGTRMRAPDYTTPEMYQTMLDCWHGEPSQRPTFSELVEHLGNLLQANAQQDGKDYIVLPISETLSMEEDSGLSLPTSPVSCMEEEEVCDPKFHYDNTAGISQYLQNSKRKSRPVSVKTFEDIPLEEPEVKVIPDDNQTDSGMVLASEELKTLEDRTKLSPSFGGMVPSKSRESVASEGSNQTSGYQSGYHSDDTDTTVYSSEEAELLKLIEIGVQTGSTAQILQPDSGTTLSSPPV

As to `C[C@@H]1NC(=O)CNC(=O)[C@H](CCC(=O)O)NC(=O)[C@H](CC(=O)O)NC(=O)[C@H](Cc2ccc(O)cc2)NC(=O)[C@H](Cc2ccc(O)cc2)NC(=O)CC[C@@H](C(N)=O)NC(=O)[C@H](CCC(=O)O)NC1=O` (YYDEGAEE-NH2; lactam N-8), the inhibition result in [1] was “inactive”.
For the compound `CC(C)C[C@@H]1NC(=O)CNC(=O)[C@H](CCC(=O)O)NC(=O)[C@H](CC(=O)O)NC(=O)[C@H](Cc2ccc(O)cc2)NC(=O)[C@H](C)NC(=O)CC[C@@H](C(N)=O)NC(=O)[C@H](CCC(=O)O)NC1=O` (AYDEGLEE-NH2; lactam N-8), the inhibition entry in experiment [1] is “inactive”.
For the compound `CC(C)C[C@@H]1NC(=O)CNC(=O)[C@H](CCC(=O)O)NC(=O)[C@H](CC(=O)O)NC(=O)[C@H](C)NC(=O)[C@H](Cc2ccc(O)cc2)NC(=O)CC[C@@H](C(N)=O)NC(=O)[C@H](CCC(=O)O)NC1=O` (YADEGLEE-NH2; lactam N-8), the inhibition entry in [1] was “inactive”.
For the compound `CC(C)C[C@@H]1NC(=O)CNC(=O)[C@H](CCC(=O)O)NC(=O)[C@H](CCCCN)NC(=O)[C@H](Cc2ccc(O)cc2)NC(=O)[C@H](Cc2ccc(O)cc2)NC(=O)CC[C@@H](C(N)=O)NC(=O)[C@H](CCC(=O)O)NC1=O` (YYKEGLEE-NH2; lactam N-8), in experiment [1], the inhibition entry was “Active”. The outcome in [2] was inactive.
For `CC(C)C[C@@H]1NC(=O)CNC(=O)[C@H](C)NC(=O)[C@H](CC(=O)O)NC(=O)[C@H](Cc2ccc(O)cc2)NC(=O)[C@H](Cc2ccc(O)cc2)NC(=O)CC[C@@H](C(N)=O)NC(=O)[C@H](CCC(=O)O)NC1=O` (YYDAGLEE-NH2; lactam N-8), the inhibition result in experiment [1] is “inactive”.
Take `CC(C)C[C@@H]1NC(=O)[C@H](CCCCN)NC(=O)[C@H](CCC(=O)O)NC(=O)[C@H](CC(=O)O)NC(=O)[C@H](Cc2ccc(O)cc2)NC(=O)[C@H](Cc2ccc(O)cc2)NC(=O)CC[C@@H](C(N)=O)NC(=O)[C@H](CCC(=O)O)NC1=O` (YYDEKLEE-NH2; lactam N-8): in experiment [1], the inhibition result was “Active”.
As to `CC(C)C[C@@H]1NC(=O)CNC(=O)[C@H](CCC(=O)O)NC(=O)[C@H](CC(=O)O)NC(=O)[C@H](CCCCN)NC(=O)[C@H](Cc2ccc(O)cc2)NC(=O)CC[C@@H](C(N)=O)NC(=O)[C@H](CCC(=O)O)NC1=O` (YKDEGLEE-NH2; lactam N-8), in [1], the inhibition result was “Active”.
As to `CC(C)C[C@@H]1NC(=O)CNC(=O)[C@H](CCC(=O)O)NC(=O)[C@H](CC(=O)O)NC(=O)[C@H](Cc2ccc(O)cc2)NC(=O)[C@H](Cc2ccc(O)cc2)NC(=O)CC[C@@H](C(N)=O)NC(=O)[C@H](CCC(=O)O)NC1=O` (YYDEGLEE-NH2; lactam N-8), in [3], the inhibition result was “Dose-dependent effect”. Further, the inhibition entry (in experiment [1]; in experiment [4]; in experiment [6]; in the experiment on HUVEC [7]; in the experiment with HUVEC [8]; in the experiment with HUVEC [9]) was “Active” throughout. The inhibition result (in experiment [5]; with HUVEC [10]) was “inactive” each time.
On to `CC(C)C[C@@H]1NC(=O)CNC(=O)[C@H](CCC(=O)O)NC(=O)[C@H](CC(=O)O)NC(=O)[C@H](Cc2ccc(O)cc2)NC(=O)[C@H](Cc2ccc(O)cc2)NC(=O)CC[C@@H](C(N)=O)NC(=O)[C@H](C)NC1=O` (YYDEGLAE-NH2; lactam N-8), for which the inhibition result in experiment [1] is “inactive”.
